Laboratory results taken from paper PMC4361037 (Annals of neurology, 2014).
“And” between values parts separate entries of the source, which are not always exact repeats. Identical values can stand only once. Like-named read-outs stand apart in the source and are kept apart here.

Experiments:
[1] = human, in vivo, po
clinical = details: human, in vivo, po; for half-life: t½ (elimination half-life)
[2] = system: GAA repeat RNA–containing foci
FXN mRNA = assay: qRT-PCR analysis of FXN mRNA expression in FRDA iPSC-derived neurons; assay type: cell-based, human; details: 10μM, 24-hour treatment
HDAC3 versus HDAC1/2 = details: cited from earlier work
FXN mRNA and protein = details: cited from earlier work; for upregulation of FXN mRNA and protein: patient PBMCs
[3] = target: human ether-a-go-go related gene (hERG) (Homo sapiens, UniProt Q12809); assay: Automated patch clamp assay; assay type: cell-based
FXN transcription = details: doses up to 8g per day; cited from earlier work
[4] = system: voltage-gated Na+ channel; assay type: cell-based, human

Sequence of human ether-a-go-go related gene (hERG) (Q12809 whole entry): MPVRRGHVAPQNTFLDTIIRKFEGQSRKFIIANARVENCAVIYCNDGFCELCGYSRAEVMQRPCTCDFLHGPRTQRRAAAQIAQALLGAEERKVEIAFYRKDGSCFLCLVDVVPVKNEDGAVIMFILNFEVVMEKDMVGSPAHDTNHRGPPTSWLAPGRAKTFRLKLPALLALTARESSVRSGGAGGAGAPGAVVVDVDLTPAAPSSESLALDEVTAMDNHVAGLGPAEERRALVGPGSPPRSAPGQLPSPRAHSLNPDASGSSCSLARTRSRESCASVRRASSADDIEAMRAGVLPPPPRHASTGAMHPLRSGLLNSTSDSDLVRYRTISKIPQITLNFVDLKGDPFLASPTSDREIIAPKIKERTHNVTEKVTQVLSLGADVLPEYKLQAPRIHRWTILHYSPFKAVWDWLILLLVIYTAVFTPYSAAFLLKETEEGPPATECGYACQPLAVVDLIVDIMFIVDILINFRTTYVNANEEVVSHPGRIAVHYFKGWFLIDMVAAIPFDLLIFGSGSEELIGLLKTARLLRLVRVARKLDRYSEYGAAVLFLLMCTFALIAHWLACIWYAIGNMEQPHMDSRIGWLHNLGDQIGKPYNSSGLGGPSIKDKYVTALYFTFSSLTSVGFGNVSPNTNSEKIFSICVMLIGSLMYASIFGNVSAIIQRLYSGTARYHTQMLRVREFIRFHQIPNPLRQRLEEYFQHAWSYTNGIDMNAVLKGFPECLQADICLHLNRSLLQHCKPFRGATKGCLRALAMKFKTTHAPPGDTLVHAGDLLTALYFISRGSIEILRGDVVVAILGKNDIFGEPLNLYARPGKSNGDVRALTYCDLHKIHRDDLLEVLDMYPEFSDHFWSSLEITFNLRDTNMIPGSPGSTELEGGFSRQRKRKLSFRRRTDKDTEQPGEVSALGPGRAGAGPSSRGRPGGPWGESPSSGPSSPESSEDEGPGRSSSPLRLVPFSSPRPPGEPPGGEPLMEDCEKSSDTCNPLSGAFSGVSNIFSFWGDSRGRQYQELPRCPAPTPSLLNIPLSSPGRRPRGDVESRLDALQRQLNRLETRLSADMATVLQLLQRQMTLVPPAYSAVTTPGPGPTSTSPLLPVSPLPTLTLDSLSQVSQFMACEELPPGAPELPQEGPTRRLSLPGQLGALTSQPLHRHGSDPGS

Cc1ccc(C(=O)NCCCCCC(=O)Nc2ccccc2N)cc1 [HDACi 109, N-[6-(2-aminophenylamino) −6-oxohexyl]-4-methylbenzamide]
CL/F [1]: 6.39±1.71 (5) l/h
Cmax (time of) [1]: ≤ 2 h
CL/F ([1]; 30 mg): 3.91±0.59 (2) l/h
CL/F ([1]; 60 mg): 6.43±1.51 (3) l/h
CL/F ([1]; 120 mg): 5.80±1.46 (5) l/h
CL/F ([1]; 180 mg): 5.24±0.89 (5) l/h
GAA•TTC repeat instability (GAA•TTC repeats): no effect on repeat instability
AUC(0-inf) (clinical): 39600 ng·h/mL
AUC(0-t) (clinical): 39300 ng·h/mL
CL/F (clinical): 1.98 mL/min/kg
Cmax (clinical): 7150 ng/mL
Tmax (clinical): 0.5 h
Vd/F (clinical): 75.5 L and 1.41 L/kg
k el (clinical): 2.34e-05 s⁻¹
AUC(0-inf) (clinical; 30 mg): 7760 ng·h/mL
AUC(0-t) (clinical; 30 mg): 7700 ng·h/mL
CL/F (clinical; 30 mg): 1.02 mL/min/kg
Cmax (clinical; 30 mg): 1980 ng/mL
Tmax (clinical; 30 mg): 0.67 h
Vd/F (clinical; 30 mg): 45.1 L and 0.69 L/kg
k el (clinical; 30 mg): 2.49e-05 s⁻¹
half-life (clinical; 30 mg): 8.2 h
AUC(0-inf) (clinical; 60 mg): 9720 ng·h/mL
AUC(0-t) (clinical; 60 mg): 9630 ng·h/mL
CL/F (clinical; 60 mg): 1.45 mL/min/kg
Cmax (clinical; 60 mg): 2560 ng/mL
Tmax (clinical; 60 mg): 0.67 h
Vd/F (clinical; 60 mg): 79 L and 1.04 L/kg
k el (clinical; 60 mg): 2.37e-05 s⁻¹
half-life (clinical; 60 mg): 8.43 h
AUC(0-inf) (clinical; 120 mg): 22000 ng·h/mL
AUC(0-t) (clinical; 120 mg): 21700 ng·h/mL
CL/F (clinical; 120 mg): 1.42 mL/min/kg
Cmax (clinical; 120 mg): 6470 ng/mL
Tmax (clinical; 120 mg): 1 h
Vd/F (clinical; 120 mg): 89.7 L and 1.32 L/kg
k el (clinical; 120 mg): 2.05e-05 s⁻¹
half-life (clinical; 120 mg): 10.1 h
AUC(0-inf) (clinical; 180 mg): 35100 ng·h/mL
AUC(0-t) (clinical; 180 mg): 34900 ng·h/mL
CL/F (clinical; 180 mg): 1.65 mL/min/kg
Cmax (clinical; 180 mg): 10900 ng/mL
Tmax (clinical; 180 mg): 0.67 h
Vd/F (clinical; 180 mg): 52.8 L and 1 L/kg
k el (clinical; 180 mg): 2.82e-05 s⁻¹
half-life (clinical; 180 mg): 7.07 h
half-life (clinical): 8.56 h
RNA nuclear foci [2]: lack of RNA nuclear foci

Nc1ccc(-c2cccs2)cc1NC(=O)CCCCCCNC(=O)c1cccnc1 [HDACi 233, N-[2-amino-5-(2-thienyl)phenyl]-7-nicotinoylamino-heptanamide]
FXN gene expression induction compared with HDACi 109 (FXN mRNA): Neither of these latter compounds induced FXN gene expression to the extent observed with HDACi 109

Nc1cc(F)ccc1NC(=O)/C=C/c1cnn(CC=Cc2ccccc2)c1 [HDACi 966, [E]-N-[2-amino-4-fluorophenyl]-3-[1-cinnamyl-1H-pyrazol-4-yl]acrylamide]
FXN gene expression induction compared with HDACi 109 (FXN mRNA): Neither of these latter compounds induced FXN gene expression to the extent observed with HDACi 109
selectivity for HDAC3 over HDAC1/2 (HDAC3 versus HDAC1/2): ~ 30 fold

Nc1ccc(-c2ccccc2)cc1NC(=O)CCCCCC(=O)Nc1ccccc1 [N[1]-[4-aminobiphenyl-3-yl]-N[7]-phenylheptanediamide]
FXN upregulation (FXN mRNA and protein; patient lymphocytes): inactive

O=C(CCCCCCC(=O)Nc1ccccc1)NO [SAHA, suberoylanilide hydroxamic acid]
upregulation of FXN mRNA and protein (FXN mRNA and protein): fail to elicit this effect

c1ccc2[nH]cnc2c1 [benzimidazole]
IC50 [3]: 920 nM

NC(=O)c1cccnc1 [nicotinamide]
restoring FXN transcription in peripheral lymphocytes from blood of orally dosed patients (FXN transcription): effective

NC1=N[C@H](O)[C@H]2[C@H]3O[C@]4(O)O[C@@H]([C@@H](O)[C@@]2(N1)[C@@H]4O)[C@]3(O)CO [tetrodotoxin]
action potential generation [4]: reversibly blocked AP generation

Cc1ccc(S(=O)(=O)O)cc1 [toluene sulfonic acid]
upregulation of FXN mRNA and protein (FXN mRNA and protein): fail to elicit this effect
